Data taken from patent publication US9617239B2, “Phenoxy thiophene sulfonamides and their use as inhibitors of glucuronidase” (North Carolina Central University, priority 2010, dated 2017).

How the values were obtained:
E. coli β-glucuronidase = E. coli β-glucuronidase (Escherichia coli (strain K12), UniProt P05804); assay: β-Glucuronidase assay (4MUG hydrolysis, fluorescence); type: biochemical; conditions: Table 1; compounds from 35,000 compound diversity set library; 50 pM enzyme, 125 uM 4MUG; read-out: IC50, β-Glucuronidase Inhibitory activity of phenoxythiophene sulfonamides
rats = conditions: background, reference 14; cited from earlier work

SMILES | IC50 (E. coli β-glucuronidase) [µM] | reversal of SN-38-related epithelial cell death and severe diarrhea from CPT-11 (rats)
COc1ccc2ccc(Oc3ccc([S+](=O)([O-])NCc4cccc5ccccc45)s3)cc2c1 [BRITE-354458] | 175 | –
O=[S+]([O-])(NCc1cccc2ccccc12)c1ccc(Oc2ccc3c(c2)CCCC3)s1 [BRITE-355030] | 149 | –
O=[S+]([O-])(NCc1cccc2ccccc12)c1ccc(Oc2ccc(OCc3ccccc3)cc2)s1 [BRITE-355169] | 153 | –
O=[S+]([O-])(NCc1cccc2ccccc12)c1cc(Cl)c(Oc2cccc(-c3ccccc3)c2)s1 [BRITE-355180] | 102 | –
COc1cccc(OC)c1Oc1sc([S+](=O)([O-])NCc2cccc3ccccc23)cc1Cl [BRITE-355201] | 202 | –
O=[S+]([O-])(NCc1cccc2ccccc12)c1cc(Cl)c(Oc2cccnc2)s1 [BRITE-355211] | 192 | –
Cc1cc(Oc2sc([S+](=O)([O-])NCc3cccc4ccccc34)cc2Cl)cc(C(C)C)c1 [BRITE-355214] | 135 | –
CCCOc1ccc(Oc2sc([S+](=O)([O-])NCc3cccc4ccccc34)cc2Cl)cc1 [BRITE-355221] | 402 | –
O=[S+]([O-])(NCc1cccc2ccccc12)c1cc(Cl)c(Oc2ccc3c(c2)OCO3)s1 [BRITE-355233] | 376 | –
Cc1cc(C)cc(Oc2sc([S+](=O)([O-])NCc3cccc4ccccc34)cc2Cl)c1 [BRITE-355234] | 152 | –
O=[S+]([O-])(NCc1cccc2ccccc12)c1cc(Cl)c(Oc2ccc3c(c2)CCCC3)s1 [BRITE-355244] | 123 | –
O=[S+]([O-])(NCc1cccc2ccccc12)c1cc(Cl)c(Oc2ccccc2)s1 [BRITE-355253] | 444 | –
O=C1OC(C(O)C(=O)O)C(O)C1O (stereo not shown) [saccharic acid 1,4-lactone] | – | partially reversed
